In ChEMBL document CHEMBL5390254, “Discovery and Optimization of Novel hDHODH Inhibitors for the Treatment of Inflammatory Bowel Disease” (J Med Chem, 2023):
The source made the active and inactive calls. No cut-off for these calls is given here.

Legend:
[1] = test system: Mus musculus; experiment: Anti-inflammatory activity against DSS-induced acute ulcerative colitis in C57BL/6 mouse model assessed as recovery in colon damage at 20 to 80 mg/kg, po QD for 6 days by H and E staining based microscopy; format: functional, organism-based; conditions: dose 20-80 mg/kg, time 6.0 day
[2] = test system: Mus musculus; experiment: Anti-inflammatory activity against DSS-induced acute ulcerative colitis in C57BL/6 mouse model assessed as decrease in IL-17 mRNA expression level in colon at 40 mg/kg, po QD for 6 days by RT-PCR analysis; format: functional, organism-based; conditions: time 6.0 day
[3] = test system: Mus musculus; experiment: Anti-inflammatory activity against DSS-induced acute ulcerative colitis in C57BL/6 mouse model assessed as decrease in body weight loss at 40 mg/kg, po QD for 6 days (Rvb= 25.6%); format: functional; set-up: scale not given: the % may be the effect or the level left; conditions: time 6 day
[4] = Metabolic stability in mouse liver microsomes assessed as half life at 3 uM incubated upto 90 mins in presence of NADPH by LC-MS/MS analysis; format: ADME, Microsome
[5] = test system: Mus musculus; experiment: Anti-inflammatory activity against DSS-induced acute ulcerative colitis in C57BL/6 mouse model assessed as decrease in body weight loss at 20 mg/kg, po QD for 6 days (Rvb= -13.4%); format: functional; set-up: scale not given: the % may be the effect or the level left; conditions: time 6 day
[6] = test system: Mus musculus; experiment: Anti-inflammatory activity against DSS-induced acute ulcerative colitis in C57BL/6 mouse model assessed as decrease in IL-6 production in colon at 40 mg/kg, po QD for 6 days by ELISA; format: functional; set-up: scale not given: the % may be the effect or the level left; conditions: time 6 day
[7] = Acute toxicity in BALB/c mouse assessed as tissue damage in lung at 600 mg/kg,po and measured after 14 days by hematoxylin and eosin staining based microscopy; format: organism-based; conditions: in vivo, 336 h, time 14 day
[8] = test system: Mus musculus; experiment: Anti-inflammatory activity against DSS-induced acute ulcerative colitis in C57BL/6 mouse model assessed as decrease in body weight loss at 80 mg/kg, po QD for 6 days (Rvb= -13.4%); format: functional; set-up: scale not given: the % may be the effect or the level left; conditions: time 6 day
[9] = Clearance in Sprague-Dawley rat at 15 mg/kg, po and measured upto 48 hrs by LC-MS/MS analysis; format: ADME, organism-based; conditions: in vivo
[10] = Acute toxicity in BALB/c mouse assessed as tissue damage in spleen at 600 mg/kg,po and measured after 14 days by hematoxylin and eosin staining based microscopy; format: organism-based; conditions: in vivo, 336 h, time 14 day
[11] = Acute toxicity in BALB/c mouse assessed as changes in platelet count in blood at 600 mg/kg,po and measured after 14 days by hematology test; format: organism-based; conditions: in vivo, 336 h, time 14 day
[12] = Acute toxicity in BALB/c mouse assessed as changes in general health status at 600 mg/kg,po and measured for 14 days; format: organism-based; conditions: in vivo, 336 h, time 14 day
[13] = Acute toxicity in BALB/c mouse assessed as death at 600 mg/kg,po and measured for 14 days; format: organism-based; conditions: in vivo, 336 h, time 14 day
[14] = Acute toxicity in BALB/c mouse assessed as changes in ALT level in serum at 600 mg/kg,po and measured after 14 days by Biochemistry analysis; format: organism-based; conditions: in vivo, 336 h, time 14 day
[15] = Metabolic stability in rat liver microsomes assessed as intrinsic clearance at 3 uM incubated upto 90 mins in presence of NADPH by LC-MS/MS analysis; format: ADME, Microsome; conditions: read-out: CLH
[16] = Acute toxicity in BALB/c mouse assessed as tissue damage in heart at 600 mg/kg,po and measured after 14 days by hematoxylin and eosin staining based microscopy; format: organism-based; conditions: in vivo, 336 h, time 14 day
[17] = Acute toxicity in BALB/c mouse assessed as changes in TP level in serum at 600 mg/kg,po and measured after 14 days by Biochemistry analysis; format: organism-based; conditions: in vivo, 336 h, time 14 day
[18] = AUCt in Sprague-Dawley rat at 15 mg/kg, po and measured upto 48 hrs by LC-MS/MS analysis; format: ADME, organism-based; set-up: dose 15 mg/kg, time < 48 hrs, route po; conditions: in vivo
[19] = Tmax in Sprague-Dawley rat at 15 mg/kg, po and measured upto 48 hrs by LC-MS/MS analysis; format: ADME, organism-based; conditions: in vivo
[20] = test system: Mus musculus; experiment: Anti-inflammatory activity against DSS-induced acute ulcerative colitis in C57BL/6 mouse model assessed as decrease in IL-17 protein level in colon at 20 to 80 mg/kg, po QD for 6 days by ELISA; format: functional, organism-based; conditions: dose 20-80 mg/kg, time 6.0 day
[21] = test system: Mus musculus; experiment: Anti-inflammatory activity against DSS-induced acute ulcerative colitis in C57BL/6 mouse model assessed as increase in colon length at 40 mg/kg, po QD for 6 days (Rvb= 5.3cm); format: functional; conditions: time 6 day
[22] = test system: Mus musculus; experiment: Anti-inflammatory activity against DSS-induced acute ulcerative colitis in C57BL/6 mouse model assessed as decrease in IL-17 mRNA expression level in colon at 20 to 80 mg/kg, po QD for 6 days by RT-qPCR analysis; format: functional, organism-based; conditions: dose 20-80 mg/kg, time 6.0 day
[23] = test system: Mus musculus; experiment: Anti-inflammatory activity against DSS-induced acute ulcerative colitis in C57BL/6 mouse model assessed as increase in colon length at 20 mg/kg, po QD for 6 days (Rvb= 5.3cm); format: functional; conditions: time 6 day
[24] = Metabolic stability in rat liver microsomes assessed as half life at 3 uM incubated upto 90 mins in presence of NADPH by LC-MS/MS analysis; format: ADME, Microsome
[25] = test system: Mus musculus; experiment: Anti-inflammatory activity against DSS-induced acute ulcerative colitis in C57BL/6 mouse model assessed as decrease in colon tissue damage score at 40 mg/kg, po QD for 6 days relative to DSS group; format: functional; set-up: scale not given: the % may be the effect or the level left; conditions: time 6 day
[26] = Acute toxicity in BALB/c mouse assessed as changes in ALP level in serum at 600 mg/kg,po and measured after 14 days by Biochemistry analysis; format: organism-based; conditions: in vivo, 336 h, time 14 day
[27] = Metabolic stability in human liver microsomes assessed as intrinsic clearance at 3 uM incubated upto 90 mins in presence of NADPH by LC-MS/MS analysis; format: ADME, Microsome; conditions: read-out: CLH
[28] = Acute toxicity in BALB/c mouse assessed as changes in lymph level in blood at 600 mg/kg,po and measured after 14 days by hematology test; format: organism-based; conditions: in vivo, 336 h, time 14 day
[29] = test system: Mus musculus; experiment: Anti-inflammatory activity against DSS-induced acute ulcerative colitis in C57BL/6 mouse model assessed as decrease in colon length shortening at 40 mg/kg, po QD for 6 days (Rvb= 5.5cm); format: functional; conditions: time 6 day
[30] = Acute toxicity in BALB/c mouse assessed as changes in neutrophil level in blood at 600 mg/kg,po and measured after 14 days by hematology test; format: organism-based; conditions: in vivo, 336 h, time 14 day
[31] = Acute toxicity in BALB/c mouse assessed as changes in UA level in serum at 600 mg/kg,po and measured after 14 days by Biochemistry analysis; format: organism-based; conditions: in vivo, 336 h, time 14 day
[32] = Acute toxicity in BALB/c mouse assessed as changes in CREA level in serum at 600 mg/kg,po and measured after 14 days by Biochemistry analysis; format: organism-based; conditions: in vivo, 336 h, time 14 day
[33] = Acute toxicity in BALB/c mouse assessed as changes in hemoglobin level in blood at 600 mg/kg,po and measured after 14 days by hematology test; format: organism-based; conditions: in vivo, 336 h, time 14 day
[34] = 1-octanol/water partition coefficient, logP of the compound at 2 mg by UPLC analysis; format: physicochemical

Nc1nc(-c2cn(Cc3c(F)cccc3Cl)c3ncccc23)ncc1C1CC1
Activity [1]: Dose-Dependent Effect
Activity [2]: Active
Activity [3]: 7.4%
half-life at 3 µM [4]: 9.4 min
Activity [5]: -5.1%
Activity [6]: 77.73%
Activity [7]: Non-Toxic
Activity [8]: 1.4%
CL/F [9]: 21.7 mL/min/kg
Activity [10]: Non-Toxic
Activity [11]: Non-Toxic
Activity [12]: Non-Toxic
Activity [13]: Non-Toxic
Activity [14]: Non-Toxic
CLint scaled at 3 µM [15]: 319 mL/min/kg
Activity [16]: Non-Toxic
Activity [17]: Non-Toxic
AUC(0-t) at 48 h [18]: 11600 ng·h/mL
Tmax [19]: 120 min
Activity [20]: Dose-Dependent Effect
Activity [21]: 6.7 cm
Activity [22]: Dose-Dependent Effect
Activity [23]: 6.1 cm
half-life at 3 µM [24]: 7.8 min
Activity [25]: 54.55%
Activity [26]: Non-Toxic
CLint scaled at 3 µM [27]: 91.8 mL/min/kg
Activity [28]: Non-Toxic
Activity [29]: 7 cm
Activity [30]: Non-Toxic
Activity [31]: Non-Toxic
Activity [32]: Non-Toxic
Activity [33]: Non-Toxic
logP [34]: 5.3
